Converted amounts (≈) assume the structure as drawn. “Also recorded” adds a separate entry of the source. Like-named read-outs stand apart in the source and are kept apart here. Marks after values point to notes of the source that are not given here.
Legend:
Format in all cases: physicochemical
[1] = Equilibrium solubility in pH buffers (pH 4.0-6.0) with pH adjustment; conditions: for S: solubility: RT, with pH adjustment
[2] = Solubility of freeform in acetone/H2O systems with various water activities; conditions: for solubility at 2 days: thermodynamic from solid
Experimental: (§1) To measure the solubility of freeform in acetone/H2O systems with various water activities, the above experiments were re-performed with addition of aw=0.3 acetone/H2O system. The suspension sample was centrifuged to obtain precipitate and supernatants. Solubility was tested for the supernatants after filtration, and isolated precipitate was tested by XRPD.

[3] = DVS (dynamic vapor sorption) moisture uptake; conditions: for Moisture Uptake (DVS): 25° C., from 0% RH to 80% RH; for form change after DVS test (XRPD): XRPD before and after DVS
Experimental: (FIG. 5). Sample weight decreased rapidly when humidity decreased from 10% to 0%, which might be caused by loss of crystalline water.
DVS was measured via a SMS (Surface Measurement Systems) DVS Intrinsic.

[4] = Solubility profile of freeform Type D in citrate buffers; conditions: for solubility at 24 h: thermodynamic from solid, read-out: Solubility
Experimental: Additional solids were added into the sample to generate suspension if clear solution was obtained. The suspension was equilibrated via stirring (1000 rpm) for 24 hours. The suspension was centrifuged to obtain precipitate and supernatants. Solubility and pH were tested for the supernatants after filtration, and the isolated precipitate was tested by XRPD.

[5] = In situ salt solubility test (citric acid, fumaric acid); conditions: for solubility: filtrate, read-out: Concentration (in situ salt solubility)
Text: The sample was almost clear (little solid was observed) and filtered for a solubility test.

[6] = Solution stability in citrate buffers; conditions: 28 days
Experimental: The stability samples were stored under 5° C. and 25° C. for 28 days, respectively. After 28 days storage, the stability samples were taken out for HPLC test and pH test.
Waters H-class UPLC (ultra-performance liquid chromatography) was used for purity, solubility, assay and stability test. Detailed method is shown in Table 9-22, Table 9-23 and Table 9-24.

[7] = Thermodynamic relationships study: slurry competition in acetone/H2O systems; conditions: RT
Experimental: Slurry competition was conducted in acetone/H2O systems with various water activities (0.0-1.0). […] Solids were separated and tested by XRPD.
as §1
Solids were separated and tested by XRPD.

[8] = pH = 4.0 buffer (50 mM citrate)
[9] = pH = 5.0 buffer (50 mM citrate)
[10] = pH = 6.0 buffer (50 mM citrate)
[11] = pH = 6.0 buffer (50 mM phosphate)
[12] = 1.1 equiv. of citric acid in water
[13] = 1.1 equivalent of fumaric acid in water
[14] = ~1 mg/mL in 10 mM citrate buffer (pH 4.3), 5° C.
[15] = ~1 mg/mL in 10 mM citrate buffer (pH 4.3), 25° C.
[16] = ~40 mg/mL in 100 mM citrate buffer (pH 4.1), 5° C.
[17] = ~40 mg/mL in 100 mM citrate buffer (pH 4.1), 25° C.

CC(=O)NCC1CCN(Cc2cc(Oc3ccc(N4CCN(CCC(=O)O)CC4)nc3)nc(-c3cc(Cl)cc(Cl)c3)c2)CC1 [Freeform Type A]
form change after equilibrium in all media ([1]; all media, 24 hours): No form change | Area % (purity of supernatant) [1, 8]: 99.9 Area % | pH (final, after adjustment where adjusted) [1, 8]: 4.2* | pH before adjustment (in brackets) ([1]; pH = 4.0 buffer (50 mM citrate), 24 hours): (5.0) | S: solubility [1, 8]: >36.9^# mg/mL | Area % (purity of supernatant) [1, 9]: 99.6 Area % | FC: form change (XRPD of precipitate) [1, 9]: N (N: solid form not changed) | pH (final, after adjustment where adjusted) [1, 9]: 5.2 | S: solubility [1, 9]: 3.31 mg/mL | Area % (purity of supernatant) [1, 10]: 99.6 Area % | FC: form change (XRPD of precipitate) [1, 10]: N (N: solid form not changed) | pH (final, after adjustment where adjusted) [1, 10]: 6.0 | S: solubility [1, 10]: 0.15 mg/mL | Area % (purity of supernatant) [1, 11]: 99.3 Area % | FC: form change (XRPD of precipitate) [1, 11]: N (N: solid form not changed) | pH (final, after adjustment where adjusted) [1, 11]: 6.0 | S: solubility [1, 11]: 0.11 mg/mL | solubility ([2]; Acetone/H2O (605:395), aw 0.8, RT): 10.265 (Type A) mg/mL | solubility at 2 days ([2]; acetone/H2O (605:395), aw 0.8, organic solvent or mixture, Acetone/H2O (605:395), aw 0.8, RT): 10300 µg/mL (≈ 16.1 mM) | solubility at 2 days ([2]; acetone/H2O (858:142), aw 0.6, organic solvent or mixture, Acetone/H2O (858:142), aw 0.6, RT): 3290 µg/mL (≈ 5.12 mM) | solubility at 2 days ([2]; acetone/H2O (950:50), aw 0.4, organic solvent or mixture, Acetone/H2O (950:50), aw 0.4, RT): 1160 µg/mL (≈ 1.8 mM) | solubility at 2 days ([2]; acetone/H2O (973:27), aw 0.3, organic solvent or mixture, Acetone/H2O (973:27), aw 0.3, RT): 1440 µg/mL (≈ 2.24 mM) | solubility at 2 days ([2]; water (aw 1), water, H2O, aw 1, RT): 10 µg/mL (≈ 0.0156 mM) | Moisture Uptake (DVS) [3]: 6.8% (from 0% RH to 80% RH) | form change after DVS test (XRPD) [3]: No form change

CC(=O)NCC1CCN(Cc2cc(Oc3ccc(N4CCN(CCC(=O)O)CC4)nc3)nc(-c3cc(Cl)cc(Cl)c3)c2)CC1 [Freeform Type D]
solubility at 24 h ([4]; 50 mM citrate buffer, pH 4.89, aqueous buffer): 13200 µg/mL (≈ 20.6 mM) | form change after equilibrium in all citrate buffers (XRPD) ([4]; 10/20/50/100 mM citrate buffers, 24 hours): No form change | solubility at 24 h ([4]; aqueous buffer, 10 mM citrate buffer, buffer pH 2.88, RT, 24 hours, end pH 4.47): 8600 µg/mL (≈ 13.4 mM) | solubility at 24 h ([4]; aqueous buffer, 10 mM citrate buffer, buffer pH 3.34, RT, 24 hours, end pH 4.57): 4000 µg/mL (≈ 6.23 mM) | solubility at 24 h ([4]; aqueous buffer, 10 mM citrate buffer, buffer pH 3.89, RT, 24 hours, end pH 4.76): 3400 µg/mL (≈ 5.3 mM) | solubility at 24 h ([4]; aqueous buffer, 10 mM citrate buffer, buffer pH 4.30, RT, 24 hours, end pH 4.82): 2100 µg/mL (≈ 3.27 mM) | solubility at 24 h ([4]; aqueous buffer, 10 mM citrate buffer, buffer pH 4.90, RT, 24 hours, end pH 5.21): 700 µg/mL (≈ 1.09 mM) | solubility at 24 h ([4]; aqueous buffer, 20 mM citrate buffer, buffer pH 3.02, RT, 24 hours, end pH 4.59): 14000 µg/mL (≈ 21.8 mM) | solubility at 24 h ([4]; aqueous buffer, 20 mM citrate buffer, buffer pH 3.55, RT, 24 hours, end pH 4.69): 9800 µg/mL (≈ 15.3 mM) | solubility at 24 h ([4]; aqueous buffer, 20 mM citrate buffer, buffer pH 4.01, RT, 24 hours, end pH 4.67): 5500 µg/mL (≈ 8.57 mM) | solubility at 24 h ([4]; aqueous buffer, 20 mM citrate buffer, buffer pH 4.60, RT, 24 hours, end pH 4.91): 2300 µg/mL (≈ 3.58 mM) | solubility at 24 h ([4]; aqueous buffer, 20 mM citrate buffer, buffer pH 4.98, RT, 24 hours, end pH 5.28): 800 µg/mL (≈ 1.25 mM) | solubility at 24 h ([4]; aqueous buffer, 50 mM citrate buffer, buffer pH 3.76, RT, 24 hours, end pH 4.82): 23800 µg/mL (≈ 37.1 mM) | solubility at 24 h ([4]; aqueous buffer, 50 mM citrate buffer, buffer pH 4.70, RT, 24 hours, end pH 4.93): 4700 µg/mL (≈ 7.33 mM) | solubility at 24 h ([4]; aqueous buffer, 50 mM citrate buffer, buffer pH 5.27, RT, 24 hours, end pH 5.33): 800 µg/mL (≈ 1.25 mM) | solubility at 24 h ([4]; aqueous buffer, 100 mM citrate buffer, buffer pH 3.60, RT, 24 hours, end pH 4.92): 24300 µg/mL (≈ 37.9 mM) | solubility at 24 h ([4]; aqueous buffer, 100 mM citrate buffer, buffer pH 4.07, RT, 24 hours, end pH 4.88): 56800 µg/mL (≈ 88.5 mM) | solubility at 24 h ([4]; aqueous buffer, 100 mM citrate buffer, buffer pH 4.51, RT, 24 hours, end pH 5.03): 21200 µg/mL (≈ 33 mM) | solubility at 24 h ([4]; aqueous buffer, 100 mM citrate buffer, buffer pH 5.03, RT, 24 hours, end pH 5.16): 4400 µg/mL (≈ 6.86 mM) | solubility at 24 h ([4]; pH 4.7, aqueous buffer, 50 mM citrate buffer, buffer pH 3.23, RT, 24 hours, end pH 4.70): 33200 µg/mL (≈ 51.7 mM) | solubility at 24 h ([4]; pH 5.5, aqueous buffer, 100 mM citrate buffer, buffer pH 5.42, RT, 24 hours, end pH 5.50): 600 µg/mL (≈ 0.935 mM) | HPLC purity of filtrates [5, 12]: 99.9% Area % | pH [5, 12]: 3.4 | HPLC purity of filtrates [5, 13]: 99.8% Area % | pH [5, 13]: 4.0 | solubility ([5]; water with 1.1 equivalent of citric acid, pH 3.4, thermodynamic from solid, 1.1 equiv. of citric acid in water): 39300 µg/mL | solubility ([5]; water with 1.1 equivalent of fumaric acid, pH 4, thermodynamic from solid, 1.1 equivalent of fumaric acid in water): 1100 µg/mL | degradation ([6]; 40 mg/mL in 100 mM citrate buffer, 5° C. and 25° C.): No significant degradation | Appearance [6, 14]: yellow solution | Assay [6, 14]: 68.4% | Purity [6, 14]: 89.0 Area % | pH [6, 14]: 4.7 | Appearance [6, 15]: cloudy and yellow | Assay [6, 15]: 11.6% | Purity [6, 15]: 78.9 Area % | pH [6, 15]: 4.6 | Appearance [6, 16]: became cloudy | Assay [6, 16]: 95.0% | Purity [6, 16]: 99.7 Area % | pH [6, 16]: 4.8 | Appearance [6, 17]: remained a clear solution | Assay [6, 17]: 98.9% | Purity [6, 17]: 99.5 Area % | pH [6, 17]: 4.9 | Moisture Uptake (DVS) [3]: 6.3% (from 0% RH to 80% RH) | form change after DVS test (XRPD) [3]: No form change | thermodynamic relationship of the forms [7]: thermodynamic form at the ambient conditions; also recorded: more stable hydrate form compared to freeform Type A

Source: patent US20240307374A1, “FORMULATION OF FURIN INHIBITOR FOR INHALATION” (BP ASSET V, INC., priority 2021, published 2024)
